Test results from patent US10329243B2, “Biphenyl derivative and uses thereof” (XI'AN LIBANG PHARMACEUTICAL CO., LTD, priority 2015, dated 2019).

Legend:
Format in all cases: in vivo, SD rats
[1] = system: MDA; assay: MDA determination, permanent cerebral ischemia model
Description: (§1) Rats were intraperitoneally injected with 10% chloral hydrate 350 mg/kg after anesthesia and opened up at the center of the neck in accordance with the Zea Longa modified method. The right common carotid artery was separated, and the right external carotid artery branches was ligated. A small opening was made at the distal end of the external carotid artery, and a previously prepared thread was inserted through the common carotid artery and the external carotid artery bifurcation into the internal carotid artery, till the anterior end of the middle cerebral artery, with an immersed depth of 18 to 19 mm. The thread was then secured, and the wound was sutured layer by layer. After the operation, the rats were placed in a clean incubator to wake up. […] The sham operation group, the permanent cerebral ischemia model group, and the Example groups were prepared strictly according to the requirements of the cerebral ischemic reperfusion model, while in the sham operation group the thread was put only into the external carotid artery. The animals were allowed to eat and drink freely after waking up. The sham operation group, the permanent cerebral ischemia model group, and the Example groups were administered intravenously the aqueous solution of the biphenyl derivatives in PEG400 at 40 mg/kg (40 mg/kg means that 40 mg of the test compound per kg of the body weight of rats) 30 min before insertion of thread and 12 h after embolism, respectively. The sham operation group and the permanent cerebral ischemia model group were injected with the same amount of blank PEG400 aqueous solution at the same time point.
(§2) 24 hours after the embolism, 8 rats in each group were sacrificed by decapitation, the brain was removed, rinsed with PBS (pH 7.4) at −20°i for 20 min, evenly sliced (with a thickness of 2 mm), stained in a 2% TTC solution at 37°% in the dark for 30 min, fixed in 10% formalin for 24 h, and photographs were taken to analyze the infarct volume. A mixture of femoral arterial and venous blood was drawn from another 8 rats in each group under anesthesia, placed in a low temperature centrifuge at 4° C., centrifuged at 3500 r/min for 20 min, and the supernatant was stored in a refrigerator at −20° C. ready for SOD and MDA detection. After the blood was drawn, a perfusion needle was insert through the apex to the ascending aorta, and saline at 4° C. was rapid infused until the effluent became clear, followed by 4% paraformaldehyde phosphate buffer perfusion for fixation; the brain was removed by craniotomy, and brain tissues 2 mm in front of and behind the optic chiasma were taken and fixed, dehydrated, rendered transparent, impregnated in wax, and embedded. Brain continuous coronary tissue pathological sections were consecutively cut for later use. The remaining 8 rats in each group were sacrificed, brains were removed, the ischemic brain hemispheres were immediately taken on an ice tray, and 10% brain tissue homogenate was prepared for the detection of IL-1β and TNF-α.
SOD and MDA were determined strictly in accordance with instructions of the kit.

[2] = system: Fas; assay: Fas determination (immunohistochemical method), cerebral ischemic reperfusion MCAO model
Description: as §1, with “group, the ischemic reperfusion group, and” for “group, the permanent cerebral ischemia model group, and”, “waking up. After 2 h, the thread was pulled out to achieve reperfusion. The sham” for “waking up. The sham”, “min before reperfusion and 12” for “min before insertion of thread and 12”, “h after reperfusion, respectively. The” for “h after embolism, respectively. The”, “and the ischemic reperfusion group were” for “and the permanent cerebral ischemia model group were”
as §2, with “reperfusion,” for “the embolism,”, “−20° i” for “−20°i”
(§3) The immunohistochemical method was used for determination. Brain tissue paraffin sections were dewaxed into water, washed with 3% H2O2 to eliminate endogenous peroxidase activity, and rinsed with distilled water for 3 times. Sodium citrate buffer was used for antigen heat repairing, and blocking with calf serum was carried out at room temperature for 15 min; a rabbit anti-mouse Fas antibody was added dropwise, allowed to stand at 4°t overnight, biotinylated goat anti-rabbit IgG was added dropwise, and heated in a water bath at 37°a for 20 min. Washing with PBS for 5 min was continuously repeated 4 times, followed by staining with DAB and sufficient washing without counterstaining. The sections were then gradient dehydrated with alcohol, made transparent with toluene, sealed and fixed. Images were captured by a video camera under high-power optical microscope and inputted into the image analysis system for image analysis. […]

[3] = system: Fas; assay: Fas determination (immunohistochemical method), permanent cerebral ischemia model
Description: as §1, §2, §3

[4] = permanent cerebral ischemia model rats, edaravone 3 mg/kg
[5] = permanent cerebral ischemia model rats, 40 mg/kg intravenously, serum, 24 h after the embolism
[6] = ischemic reperfusion MCAO rats, 40 mg/kg intravenously, brain sections 24 h after reperfusion, gray scale inversely proportional to positive expression
[7] = permanent cerebral ischemia model rats, 40 mg/kg intravenously, brain sections 24 h after the embolism, gray scale inversely proportional to positive expression

Compound	MDA CONTENT [1, 5]	Fas average gray scale [2, 6]	Fas average gray scale [3, 7]	other results
3,3′,5,5′-tetraisopropylbiphenyl-4,4′-bis(oxymethylene phosphate) [Example 3 group]	–	–	–	MDA CONTENT ([1]; rat, in vivo, iv, 40 mg/kg): 5.07 ± 0.77 mmol/mL; Fas average gray scale ([2]; rat, in vivo, iv, 40 mg/kg): 144.56 ± 6.32; Fas average gray scale ([3]; rat, in vivo, iv, 40 mg/kg): 143.39 ± 4.23
CC1=NN(c2ccccc2)C(=O)C1 [Edaravone injection, edaravone, reference compound]	–	–	–	MDA CONTENT [1, 4]: 5.98 ± 0.44 mmol/mL; Fas average gray scale ([2]; ischemic reperfusion rat model, edaravone 3 mg/kg): 139.65 ± 2.05; Fas average gray value [3, 4]: 138.95 ± 5.50
CC(=O)Oc1c(C(C)C)cc(-c2cc(C(C)C)c(O)c(C(C)C)c2)cc1C(C)C [Example 1 group, 4′-hydroxy-3,3′,5,5′-tetraisopropylbiphenyl-4-acetate]	–	–	–	MDA CONTENT ([1]; permanent cerebral ischemia model rats, 40 mg/kg intravenously, serum, 24 h after the embolism, 40 mg/kg): 4.49 ± 0.59 mmol/mL
CC(=O)Oc1c(C(C)C)cc(-c2cc(C(C)C)c(OC(C)=O)c(C(C)C)c2)cc1C(C)C [Example 2 group, 3,3′,5,5′-tetraisopropylbiphenyl-4′-diacetate]	5.10 ± 0.82 mmol/mL	148.36 ± 5.33	149.63 ± 8.15	–
CC(C)c1cc(-c2cc(C(C)C)c(OC(=O)CCC(=O)O)c(C(C)C)c2)cc(C(C)C)c1O [Example 5 group, [4-(4′-hydroxy-3,3′,5,5′-tetraisopropylbiphenyl)oxy]-4-carbonyl butyric acid]	4.68 ± 0.42 mmol/mL	148.02 ± 4.16	143.02 ± 5.53	–
CCCc1cc(-c2cc(CCC)c(O)c(C(C)C)c2)cc(C(C)C)c1O [Example 6 group, 4,4′-dihydroxy-3,3′-diisopropyl-5,5′-dipropylbiphenyl]	4.31 ± 0.51 mmol/mL	155.33 ± 3.78	151.63 ± 5.58	–
CCCc1cc(-c2cc(CCC)c(O)c(CCC)c2)cc(CCC)c1O [Example 7 group, 4,4′-dihydroxy-3,3′,5,5′-tetrapropylbiphenyl]	4.42 ± 0.39 mmol/mL	157.26 ± 4.05	153.46 ± 5.73	–
CC(C)c1cc(-c2cc(C(C)C)c(C(=O)O)c(C(C)C)c2)cc(C(C)C)c1O [Example 8 group, 4′-hydroxy-3,3′,5,5′-tetraisopropylbiphenyl-4-carboxylic acid]	5.06 ± 0.28 mmol/mL	148.82 ± 7.62	145.24 ± 5.26	–
CC(C)c1cc(-c2cc(C(C)C)c(Cl)c(C(C)C)c2)cc(C(C)C)c1O [Example 9 group, 4-chloro-4′-hydroxy-3,3′,5,5′-tetraisopropylbiphenyl]	–	–	–	MDA CONTENT ([1]; rat, in vivo, iv, 40 mg/kg): 5.26 ± 0.49 mmol/mL; Fas average gray scale ([2]; rat, in vivo, iv, 40 mg/kg): 147.11 ± 5.61; Fas average gray scale ([3]; rat, in vivo, iv, 40 mg/kg): 144.31 ± 5.49
CC(C)c1cc(-c2cc(C(C)C)c(OC=O)c(C(C)C)c2)cc(C(C)C)c1O [Example 10 group]	–	145.06 ± 4.08	140.62 ± 3.85	–
CC(C)c1cc(-c2cc(C(C)C)c(OC(=O)C(N)C(C)C)c(C(C)C)c2)cc(C(C)C)c1O (centres unmarked) [Example 11 group, 4′-hydroxy-3,3′,5,5′-tetraisopropylbiphenyl-2-amino-3-methylbutyrate]	–	152.12 ± 6.17	150.72 ± 4.19	–
CC(=O)OC(C)Oc1c(C(C)C)cc(-c2cc(C(C)C)c(O)c(C(C)C)c2)cc1C(C)C (centres unmarked) [Example 12 group, Ethyl 1-(4′-hydroxy-3,3′,5,5′-tetraisopropylbiphenyl-4-oxo)acetate]	6.03 ± 0.36 mmol/mL	144.26 ± 3.47	139.48 ± 5.72	–
